Test results: PubChem BioAssay AID1645865 (Buhrlage Lab, Dana-Farber Cancer Institute and Novartis …, 2021)
Calls of active or inactive are those of the source.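 How the source made its calls: active means maximal inhibition of the USP30 enzyme reaching 30% or more across the dose series; inactive means the rest.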

Biological target: Ubiquitin carboxyl-terminal hydrolase 30 (Homo sapiens) (UniProt Q70CQ3)
Test: inhibitors of ubiquitin-specific protease 30 deubiquitylating enzyme, concentration dependence, in vitro biochemical, validation of primary hits (AID 1645865)
Settings: purified USP30, Ub-rhodamine cleavage, fluorescence, 2 h

Chain of Ubiquitin carboxyl-terminal hydrolase 30 (Homo sapiens) (Q70CQ3 whole entry, looked up): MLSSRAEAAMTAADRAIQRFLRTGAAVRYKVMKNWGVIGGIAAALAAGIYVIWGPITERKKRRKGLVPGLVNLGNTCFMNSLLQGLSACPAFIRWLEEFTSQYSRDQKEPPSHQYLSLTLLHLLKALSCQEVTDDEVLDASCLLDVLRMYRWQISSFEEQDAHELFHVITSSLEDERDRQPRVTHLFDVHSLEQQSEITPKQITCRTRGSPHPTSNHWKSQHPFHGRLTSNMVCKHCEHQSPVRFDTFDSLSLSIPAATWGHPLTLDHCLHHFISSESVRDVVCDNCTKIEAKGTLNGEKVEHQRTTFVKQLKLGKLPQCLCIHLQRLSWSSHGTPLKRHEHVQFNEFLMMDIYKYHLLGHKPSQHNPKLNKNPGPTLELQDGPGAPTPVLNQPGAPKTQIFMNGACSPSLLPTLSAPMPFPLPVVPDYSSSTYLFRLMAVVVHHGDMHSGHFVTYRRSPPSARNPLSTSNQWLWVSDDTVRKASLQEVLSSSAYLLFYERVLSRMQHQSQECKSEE

Structure (SMILES) | IC50
O=C(c1ccc2ncccc2c1)N1CCC2(C1)Nc1cccnc1NC2=NC1CCCC1 (stereo unspecified) | > 50 µM (inactive)
CC(C)NC(=O)CN1C(=O)CC(C)Sc2ccc(S(=O)(=O)N3CCCCC3)cc21 (stereo unspecified) | 27.1 µM
CC1CCN(c2cc(-n3cnc(C(=O)N4CCCCC4)c3)ncn2)CC1 | > 50 µM (inactive)
O=C1COc2ccccc2N1Cc1noc(-c2ccccc2)n1 | > 50 µM (inactive)
CC(C)(C)c1ccc(Cn2nnc3c(=O)[nH]c(C4CCN(S(=O)(=O)c5ccc(S(=O)(=O)NC6CC6)cc5)CC4)nc32)cc1 | 48.7 µM
N#Cc1ccc(Cl)cc1NC(=O)COc1cccnc1[N+](=O)[O-] | > 50 µM (inactive)
C[C@@H](C(=O)NCc1ccc(F)cc1)N1C(=O)N2CCc3c([nH]c4ccccc34)[C@@]2(C)C1=O | 4.05 µM
Cc1nc2sc(C(=O)Nc3ccccc3Br)c(N)c2c(C)c1C | 1.2 µM
COc1ccc(C(=O)N2CCCC3(C2)Nc2cccnc2NC3=NC2CCCC2)cn1 (stereo unspecified) | > 50 µM (inactive)
CC(C)CCCCCCCCCCC(=O)N(C)[C@H](CO)C(=O)N[C@H](C)C(=O)NCC(=O)N(C)C1C(=O)N[C@@H](C)C(=O)NC(C(=O)O)Cc2ccc(O)c(c2)-c2cc1ccc2O (stereo partly specified) | > 50 µM (inactive)
COc1cccc(NC(=O)c2nnn(-c3ccccc3)n2)c1 | > 50 µM (inactive)
COCCCn1c(SCC(=O)Nc2ccccc2C(=O)OC)nc2ccccc2c1=O | 25.7 µM
CC(C)C(=O)Nc1ccc(N2CCN(Cc3ccc(F)cc3)C2=O)nc1 | 37.6 µM
O=C(Nc1cccc(Br)c1)c1cc(-c2cccnc2)n[nH]1 | 1.55 µM
Cc1c(C(=O)NCc2cccc(Br)c2)oc2c1-c1[nH]ncc1CC2 | > 50 µM (inactive)
O=C(NCc1cccnc1)c1cnn2c(C(F)(F)F)cc(-c3ccc(F)cc3)nc12 | 23.3 µM
O=C(COC(=O)Cn1cnc2ccccc21)Nc1ccc2c(c1)OCCO2 | > 50 µM (inactive)
O=C1N(Cc2ccc(F)cc2)CCN1c1ccc2c(c1)CCC2 | > 50 µM (inactive)
COc1ccc(-c2cc(-c3nnc(CSc4nc5ccccc5n4C)o3)c3ccccc3n2)cc1OC | > 50 µM (inactive)
CCCNC(=O)c1ccn(-c2ccc3ccc(-c4cnn(C)c4)cn23)n1 | > 50 µM (inactive)
O=C(NCc1ccc(Br)cc1)c1ccc(-c2cccnc2)nc1 | 30.3 µM
O=C(Cc1ccc(Cl)c(Cl)c1)OCC(=O)c1c[nH]c2ccccc12 | > 50 µM (inactive)
FC(F)(F)c1cccc(Nc2nnc(-c3cccnc3)s2)c1 | 2.76 µM

Structure (SMILES) | IC50
CNC(=O)c1cc2nc(N(C)C)n(-c3ccc(F)cc3)c2s1 | > 50 µM (inactive)
CCN1CCN(C(=O)CCCN(c2ccccc2)S(C)(=O)=O)CC1 | > 50 µM (inactive)
CSc1nc(Cc2ccc(Cl)cc2)nc2ccccc12 | > 50 µM (inactive)
CC(=O)N1CCc2cc(S(=O)(=O)NCCC(=O)Nc3cccc(C)c3C)ccc21 | 39 µM
CCOC(=O)c1ccc(S(=O)(=O)N2CCC(C(=O)OC(C)C(=O)Nc3cccc([N+](=O)[O-])c3)CC2)cc1 (stereo unspecified) | 2.51 µM
C=C1CCC2[C@](C)(CCC[C@]2(C)C(=O)OC)[C@H]1CCc1ccoc1/C=C/C(=O)O (stereo partly specified) | > 50 µM (inactive)
Cc1ccc2oc(=O)c(S(=O)(=O)N3CCCCC3)cc2c1 | 12.7 µM
Cc1cccc(NC(=O)c2nc(N3CCSCC3)c3cnn(C)c3n2)c1 | > 50 µM (inactive)
Cc1cccc(NC(=O)CSc2ncnc3c2sc2nc(CC(C)C)c4c(c23)CCC4)c1 | 19.6 µM
Fc1ccccc1N1CCN(c2ncc3c(n2)CCN(Cc2ccccn2)C3)CC1 | > 50 µM (inactive)
COCCCN1CCS(=O)(=O)c2c(Cl)c(F)nc(Oc3ccccc3F)c21 | > 50 µM (inactive)
NS(=O)(=O)c1cc(C(=O)OCC(=O)NC2CCCc3ccccc32)ccc1Cl (stereo unspecified) | > 50 µM (inactive)
Cc1nc(-c2noc(-c3ccncc3)n2)cn1CC(=O)N1CCN(c2ccc(F)cc2)CC1 | 39.1 µM
O=C1CC(c2ccco2)Cc2[nH]c(=O)c(-c3nc(-c4ccc(Cl)cc4)cs3)cc21 (stereo unspecified) | > 50 µM (inactive)
O=C(Nc1ccc(Br)cn1)c1nc2ccccc2nc1N1CCCCC1 | > 50 µM (inactive)
O=C(Nc1ccc(-c2nnc3n2CCCCC3)cc1)c1ccc2c(c1)OCO2 | > 50 µM (inactive)
Fc1cc(F)c2[nH]cc(-c3nnnn3-c3ccc4ccccc4c3)c2c1 | 7.66 µM
COc1ccc(CCNC(=O)c2noc3c2CCc2sccc2-3)cc1OC | 39.9 µM
COc1ccc2nc3c(cc2c1)c(=O)n(C)c1c3c(=O)n(-c2ccccc2)c(=O)n1-c1ccccc1 | > 50 µM (inactive)
COc1cccc(N2CCN(C(=O)CCNS(=O)(=O)c3ccc4c(c3)CCC(=O)N4)CC2)c1 | > 50 µM (inactive)
O=C(COC(=O)c1n[nH]c2ccccc12)Nc1ccc(N2CCCCC2)cc1 | 34.9 µM
COc1cc(OC)cc(-n2c(=O)c3sccc3n(CC(=O)c3ccc(F)cc3)c2=O)c1 | 31.3 µM
O=C(Cn1cnc2ccccc21)Nc1ccc2c(c1)CCC2 | 42.6 µM

Structure (SMILES) | IC50
O=C(c1cnccn1)N1CCc2[nH]c3ccc(F)cc3c2C1 | > 50 µM (inactive)
COc1ccc(OC)c(NC(=O)CNC(=O)c2cc3c(OC)cccc3[nH]2)c1 | > 50 µM (inactive)
O=c1c2cnc(N3CCCCC3)nc2ccn1CCc1ccccc1 | 2.44 µM
COc1ccc(CCNC(=O)[C@H](CCSC)NC(=O)N2CCn3c2nc2ccccc23)cc1OC | 44 µM
Cc1nc(-c2ccc(NC(=O)N3CCN(c4ccccn4)CC3)cc2)no1 | > 50 µM (inactive)
CC1OC2CC(O)C1(O)C1=C2C(=O)c2c(O)c3c(c(O)c2C1=O)[C@H](C)O[C@H]1CC(=O)O[C@@H]31 (stereo partly specified) | > 50 µM (inactive)
O=C(Nc1ccc2c(c1)OCCO2)c1cc(CN2CCCC2)on1 | > 50 µM (inactive)
c1coc(CNc2nc3ccccc3n3nnnc23)c1 | > 50 µM (inactive)
Cc1ccccc1C(=O)OCCN1C(=O)c2cccc3c(N4CCOCC4)ccc(c23)C1=O | > 50 µM (inactive)
O=C(NCc1cccnc1)c1cnn2c(C(F)(F)F)cc(-c3ccccc3)nc12 | > 50 µM (inactive)
COc1ccc(NC(=O)C2[C@@H]3C(=O)N(C4CCCCC4)C(=O)[C@@H]3[C@H]3c4ccccc4C=CN23)cc1 (stereo partly specified) | > 50 µM (inactive)
Cc1cccc(-n2ccnc(SCC(=O)Nc3ccc(Cl)cc3F)c2=O)c1 | 2.4 µM
Cn1c(=O)cc(SCC(=O)NC2CCN(Cc3ccccc3)CC2)c2ccc(Cl)cc21 | 28.8 µM
COc1ccccc1C(=O)N1CCc2[nH]c3ccc(F)cc3c2C1 | > 50 µM (inactive)
CCCCCCCCCC(CCCCCCCCCC(=O)O)O[C@H]1O[C@@H](COC(C)=O)[C@H](O)[C@@H](O)[C@H]1OC(=O)CC(=O)O (stereo partly specified) | 21.7 µM
O=C(Nc1ccc(Cl)cc1)Nc1cccn2ncnc12 | 18.7 µM
COc1ccc(Cl)cc1-n1nnc(C(=O)N2CCc3ccccc3C2)c1C | > 50 µM (inactive)
CSc1ncccc1C(=O)NC1(O)C(=O)c2ccccc2C1=O | 29.5 µM
O=C(NCCN1CCCC1)C1CCN(c2cnc(N3CCCCC3)nc2)CC1 | > 50 µM (inactive)
COc1c(O)cc(CC(=O)O)c(C(C)=O)c1O | > 5 µM (inactive)
O=C(NC1CCS(=O)(=O)C1)c1ccc(N2CCC(Cc3ccccc3)CC2)nn1 (stereo unspecified) | > 50 µM (inactive)

Now from value to compound:

IC50 | Structure (SMILES)
> 50 µM (inactive) | COc1cc(-c2ccno2)ccc1S(=O)(=O)Nc1ccccc1Cl
> 50 µM (inactive) | COc1ccc(C(=O)CSc2nnc(-c3cccnc3)n2-c2ccccc2)cc1
32.5 µM | Cc1cccc(C(=O)Nc2ccccc2Sc2nc3c(c(=O)n(C)c(=O)n3C)n2C)c1
19.5 µM | O=C(CC1C(=O)N(Cc2ccccc2)c2nc3ccccc3n21)NCCc1ccccc1 (stereo unspecified)
> 50 µM (inactive) | Cc1ccccc1NC(=O)Cn1cc(-c2nc(C3CC3)no2)ccc1=O
1.74 µM | COc1cc(NC(=O)Cn2nc(-c3ccc(F)cc3)ccc2=O)ccc1-n1cnnn1
> 50 µM (inactive) | Cc1cc(-c2cnc(N(C)C)nc2-c2ccc(CNC(=O)Cc3ccc(F)cc3)cc2)on1
28.5 µM | O=C(CCn1c(=O)c2ccccc2n(Cc2cc(=O)n3ccccc3n2)c1=O)NCCc1ccc(Cl)cc1
20.3 µM | Cc1ccc(NC(=O)Cn2cc(S(=O)(=O)N3CCCC3)ccc2=O)cc1
> 50 µM (inactive) | Cc1ccc(S(=O)(=O)N(C)C)cc1NC(=O)Cc1ccc(Cl)c(Cl)c1
> 50 µM (inactive) | COc1ccc(C(C)NC(=O)c2cnc(-c3ccccc3)nc2-c2ccncc2)cc1 (stereo unspecified)
33.9 µM | Cc1ccc2nc(CNC(=O)c3ccccc3-c3nc(-c4ccc(F)cc4)no3)[nH]c2c1
> 50 µM (inactive) | Cc1ccc2[nH]c(=O)c(CN(Cc3cccnc3)C(=O)c3cccc(Cl)c3)cc2c1
> 50 µM (inactive) | COc1ccc(NC2c3ccccc3C(=O)N2c2ccccn2)cc1 (stereo unspecified)
4.95 µM | COc1ccc2nc(SCC(=O)Nc3ccc(NC(C)=O)cc3)c(C)cc2c1
44.9 µM | Cc1c(C)n(-c2ccccc2)c2ncn(CC(=O)NCCCc3ccccc3)c(=O)c12
> 50 µM (inactive) | Cc1ccccc1NC(=O)c1ccn(COc2ccc(Cl)cc2)n1
48.2 µM | Cc1oc2ccc(NS(=O)(=O)c3ccc(F)cc3)cc2c1C(=O)OCc1ccccc1
> 50 µM (inactive) | COc1ccc(C(C(=O)NCc2ccccc2)N(C(=O)CCN2CCc3ccccc32)c2ccc(C)c(C)c2)cc1 (stereo unspecified)
23 µM | Cc1c(C)n(-c2ccccc2)c2ncn(CC(=O)NC(C)c3ccccc3)c(=O)c12 (stereo unspecified)
25.3 µM | O=C(NCc1ccc(Cl)cc1)Nc1cccc2ccccc12
> 50 µM (inactive) | Cc1ccc(OC(=O)c2cn(-c3ccccc3)nc2-c2cccnc2)cc1
> 50 µM (inactive) | COc1ccc(-c2cnnn2-c2ccc(NC(=O)c3c(F)cccc3F)cc2)cc1OC
> 50 µM (inactive) | Cc1ccc(-c2nc(-c3ccccc3)c(S(=O)(=O)CC(=O)Nc3ccc(C)c(C)c3)[nH]2)cc1
29 µM | CCc1noc(-c2ccc(OCC(=O)Nc3ccc(C)cc3C)cc2)n1
> 50 µM (inactive) | Cc1ccc(-c2ncc(C(=O)NCc3cccc(C)c3)c(-c3ccncc3)n2)cc1
> 50 µM (inactive) | Cn1c(CCN2CCCC2)nc2cc(NS(=O)(=O)c3ccccc3)ccc21
18.9 µM | COc1ccc(NC(=O)c2sc(N3CCOCC3)nc2-c2ccccc2)c(OC)c1
> 50 µM (inactive) | Cc1ccc(-c2nnc(-n3ncc(C#N)c3N)c3ccccc23)cc1C
